Results published in PubChem BioAssay AID1963860 (Molecular Pharmacology Branch, DTP, NCI, 2024).

Tested on: CN0375-F725-PDC KRAS spheroid viability
Experiment: Anticancer human tumor CN0375-F725-PDC patient-derived colon carcinoma cell line growth inhibition [KRAS2]
Conditions: spheroids with HUVEC and MSC; for IC50: curve of first compound; for viability, T/C: stronger effect = lower value
How it was run: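 Combination screen of spheroid viability in tumor-cell co-cultures with endothelial (HUVEC) and mesenchymal stem cell stroma. Each agent was tested in half-log dilutions, topping at clinical Cmax or at 10 microM without a known Cmax.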

[1] = second compound 0.1 µM, first compound 0.0316 µM
[2] = second compound 0.1 µM, first compound 0.1 µM
[3] = second compound 0.1 µM, first compound 0.316 µM
[4] = second compound 0.1 µM, first compound 1 µM
[5] = second compound 0.1 µM, first compound 3.16 µM
[6] = second compound 0.1 µM, first compound 10 µM
[7] = second compound 0.316 µM, first compound 0.0316 µM
[8] = second compound 0.316 µM, first compound 0.1 µM
[9] = second compound 0.316 µM, first compound 0.316 µM
[10] = second compound 0.316 µM, first compound 1 µM
[11] = second compound 0.316 µM, first compound 3.16 µM
[12] = second compound 0.316 µM, first compound 10 µM
[13] = second compound 1 µM, first compound 0.0316 µM
[14] = second compound 1 µM, first compound 0.1 µM
[15] = second compound 1 µM, first compound 0.316 µM
[16] = second compound 1 µM, first compound 1 µM
[17] = second compound 1 µM, first compound 3.16 µM
[18] = second compound 1 µM, first compound 10 µM
[19] = second compound 3.16 µM, first compound 0.0316 µM
[20] = second compound 3.16 µM, first compound 0.1 µM
[21] = second compound 3.16 µM, first compound 0.316 µM
[22] = second compound 3.16 µM, first compound 1 µM
[23] = second compound 3.16 µM, first compound 3.16 µM
[24] = second compound 3.16 µM, first compound 10 µM
[25] = second compound 10 µM, first compound 0.0316 µM
[26] = second compound 10 µM, first compound 0.1 µM
[27] = second compound 10 µM, first compound 0.316 µM
[28] = second compound 10 µM, first compound 1 µM
[29] = second compound 10 µM, first compound 3.16 µM
[30] = second compound 10 µM, first compound 10 µM
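Also: spheroids exposed to agents for 7 days.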

Row | SMILES | IC50 (second compound 0.1 µM) [µM] | IC50 (second compound 0.316 µM) [µM] | IC50 (second compound 1 µM) [µM] | IC50 (second compound 3.16 µM) [µM] | IC50 (second compound 10 µM) [µM] | viability, T/C [1] [%] | viability, T/C [2] [%] | viability, T/C [3] [%] | viability, T/C [4] [%] | viability, T/C [5] [%] | viability, T/C [6] [%] | viability, T/C [7] [%] | viability, T/C [8] [%] | viability, T/C [9] [%] | viability, T/C [10] [%] | viability, T/C [11] [%] | viability, T/C [12] [%] | viability, T/C [13] [%] | viability, T/C [14] [%] | viability, T/C [15] [%] | further results
1 | CC1OCC2(CCN(c3cnc(Sc4ccnc(N)c4Cl)c(N)n3)CC2)C1N (stereo not given) + C=CC(=O)N1CCN(c2nc(=O)n(-c3c(C)ccnc3C(C)C)c3nc(-c4c(O)cccc4F)c(F)cc23)C(C)C1 | > 10 | > 10 | > 10 | > 10 | > 10 | 102 | 86.4 | 82.5 | 79.1 | 77.2 | 63.6 | 98.8 | 85.5 | 78.3 | 79.9 | 77.5 | 59.8 | 96.3 | 99.3 | 86.3 | viability, T/C [16]: 82.9%; viability, T/C [17]: 75.2%; viability, T/C [18]: 65.6%; viability, T/C [19]: 104%; viability, T/C [20]: 92.4%; viability, T/C [21]: 81.4%; viability, T/C [22]: 81%; viability, T/C [23]: 71.6%; viability, T/C [24]: 65.6%; viability, T/C [25]: 94%; viability, T/C [26]: 92.2%; viability, T/C [27]: 77.9%; viability, T/C [28]: 66.3%; viability, T/C [29]: 61.8%; viability, T/C [30]: 49.6%
2 | Cn1nccc1Nc1nccc(-c2cc3c(s2)C(C)(C)N(CCN2CCOCC2)C3=O)n1 + C=CC(=O)N1CCN(c2nc(=O)n(-c3c(C)ccnc3C(C)C)c3nc(-c4c(O)cccc4F)c(F)cc23)C(C)C1 | 6.96 | 5.32 | > 10 | 2.34 | 0.674 | 117 | 88 | 70.1 | 70.6 | 55.5 | 45.3 | 120 | 93.9 | 64.3 | 63.8 | 54.3 | 45 | 119 | 99.3 | 66 | viability, T/C [16]: 61.2%; viability, T/C [17]: 54.9%; viability, T/C [18]: 46.1%; viability, T/C [19]: 120%; viability, T/C [20]: 105%; viability, T/C [21]: 67.8%; viability, T/C [22]: 60.3%; viability, T/C [23]: 50.2%; viability, T/C [24]: 42.4%; viability, T/C [25]: 103%; viability, T/C [26]: 101%; viability, T/C [27]: 61.7%; viability, T/C [28]: 48.8%; viability, T/C [29]: 45.4%; viability, T/C [30]: 32.2%
